Results on two compounds are retold here after article PMC11035696, “Prospective de novo drug design with deep interactome learning” (Nature Communications, 2024).

The target of one data set is CYP1A2 (Homo sapiens, UniProt P05177). Nature of the data set: CYP inhibition dose-response. Type of data set: in vitro ADME. As to conditions: substrate PHENACETIN
The protocol: (§1) SI11Absorption Distribution Metabolism and Excretion and Toxicity Data
(§2) To assess the drug-like characteristics of the newly designed PPAR modulators, a series of tests were conducted covering various aspects of absorption, distribution, metabolism, and excretion (ADME) properties. Specifically, these assessments included the parallel artificial membrane permeability assay (PAMPA) with permeation co- […]
(§3) efficients ([…]), LogD measurements, microsomal clearance, hepatocyte clearance, P-glycoprotein (Pgp) efflux ratio and binding and the unbound free fraction. Furthermore, the evaluation of inhibition po-tential against cytochrome P450 isoenzymes (CYP) proteins was investigated. For seven selected CYP proteins (i.e., Cyp3A4, Cyp1A2, Cyp2B6, Cyp2C9, Cyp2D6, Cyp2C19, and Cyp2C8) the half maximal inhibitory con-centration (IC50) was determined. (Table S15). […]
(§4) activity in the CYP assays was found.
(§5) Table S14: Absorption distribution metabolism and excretion (ADME) properties of compounds 1 and 2. […]
(§6) The values for microsomal clearance and CYP-inhibition represent single point measurements. […]
(§7) Molecule Enzyme Substrate IC50 (µM) […]

The next data set concerns the target CYP2B6 (Homo sapiens, UniProt P20813). The data set can be described thus: CYP inhibition dose-response. Format: in vitro ADME. As to conditions: substrate BUPROPION
The method, then:
as §1, §2, §3, §4, §5, §6, §7

Data set [1] is described as follows: Parallel artificial membrane permeability assay (PAMPA). Type of data set: in vitro ADME. As to conditions: PAMPAPEFF permeation coefficient. The method, then:
(§8) Compounds 1–3 were characterized in a hybrid reporter gene assay for their agoniztic effect on human nuclear receptors PPARα/γ/δ, RXRα, FXRα, RARα in HEK293T cells. Compound 1 was tested in an isothermal titration calorimetry (ITC) assay to measure direct binding affinity to the ligand-binding domain of PPARγ. ADME properties were measured in standardized assays at Roche.
as §1, §2
efficients ([…]), LogD measurements, microsomal clearance, hepatocyte clearance, P-glycoprotein (Pgp) efflux ratio and binding and the unbound free fraction. […]
Table S14: Absorption distribution metabolism and excretion (ADME) properties of compounds 1 and 2. The […]
values for […], LogD, protein binding, P-glycoprotein (Pgp) efflux ratio and permeability, and hepato-cyte clearance are presented as the mean and standard deviation, with a sample size of N = 3, i.e., 3 technical replicates each. The values for microsomal clearance and CYP-inhibition represent single point measurements. […]

The next data set deals with T1, human PPARα (Homo sapiens, UniProt Q07869).
T1 construct: expressed in transfected cells; host or cells: HEK293T
T1 sequence (Q07869 239-466 limits assumed): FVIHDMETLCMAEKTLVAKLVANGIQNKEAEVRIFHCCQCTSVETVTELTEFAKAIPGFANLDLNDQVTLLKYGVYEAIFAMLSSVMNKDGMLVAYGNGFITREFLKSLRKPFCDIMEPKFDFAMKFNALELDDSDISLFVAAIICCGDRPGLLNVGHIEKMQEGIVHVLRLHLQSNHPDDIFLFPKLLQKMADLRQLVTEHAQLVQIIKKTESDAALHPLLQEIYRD
The data set can be described thus: Gal4-hybrid reporter gene assay, PPARα activation. As to conditions: hybrid reporter gene assay, result in words. Format: cell-based. The protocol: as §8
PPAR activation was determined in uniform Gal4-hybrid reporter gene assays for the PPARα, PPARγ and PPARδ isoforms in HEK293T cells (German Collection of Microorganisms and Cell Culture GmbH, DSMZ) which were transiently transfected with pFR-Luc (Stratagene, La Jolla, CA, USA; reporter) and pRL-SV40 (Promega, Madison, WI, USA; internal control) and one pFA-CMV-hPPAR-LBD[97] clone, coding for the hinge region and ligand binding domain of the canonical isoform of human PPARα, PPARγ, PPARδ or respectively. Cells were cultured in Dulbecco’s modified Eagle’s medium (DMEM), high glucose supplemented with 10% fetal calf serum (FCS), sodium pyruvate (1 mM), penicillin (100 U ⋅ ml^-1), and streptomycin (100 μg ⋅ ml^-1) at 37 °C and 5% CO2 and seeded in 96-well plates (3 × 10^4 cells per well). After 24 h, medium was changed to Opti-MEM without supplements and cells were transiently transfected using Lipofectamine LTX reagent (Invitrogen) according to the manufacturer’s protocol. Five hours after transfection, cells were incubated with the test compounds in Opti-MEM supplemented with penicillin (100 U ⋅ ml^-1), streptomycin (100 μg ⋅ ml^-1) and 0.1% DMSO for 16 h before luciferase activity was measured using the Dual-Glo Luciferase Assay System (Promega) according to the manufacturer’s protocol on a Tecan Spark luminometer (Tecan Deutschland GmbH, Germany). Firefly luminescence was divided by Renilla luminescence and multiplied by 1000 resulting in relative light units (RLU) to normalize for transfection efficiency and cell growth. Fold activation was obtained by dividing the mean RLU of a test compound by the mean RLU of the untreated control. All samples were tested in at least three biologically independent experiments in duplicates. For dose-response curve fitting and calculation of EC50 values, the equation “[Agonist] versus response (variable slope—four parameters)” was used in GraphPad Prism (version 7.00, GraphPad Software, La Jolla, CA, USA) with fold activation data. The reference agonizts GW7647 (PPARα)[98],[99], pioglitazone (PPARγ)[100],[101] and L165,041 (PPARδ)[102],[103] were used to validate the assays and to monitor assay performance. Nuclear receptor selectivity profiling was performed with corresponding pFA-CMV-hNR-LBD clones and suitable reference agonizts on RARα (pFA-CMV-hRARα-LBD[104], 1 μM tretinoin), LXRα (pFA-CMV-hLXRα-LBD[104], 1 μM TO901317) and RXRα (pFA-CMV-h RXRα-LBD[105], 1 μM Bexarotene).

The target in a further data set is T2, PPARγ LBD protein (Homo sapiens, UniProt P37231).
T2 construct: PPARγ LBD protein (30 μM, prepared as described previously[106]); made in house
Nature of the data set: Isothermal titration calorimetry (ITC). Type of data set: binding. The protocol:
as §8
ITC experiments were conducted on an Affinity ITC instrument (TA Instruments, New Castle, DE) at 25 °C with a stirring rate of 75 rpm. PPARγ LBD protein (30 μM, prepared as described previously[106]) in buffer (20 mM Tris pH 7.5, 150 mM NaCl, 5% glycerol) containing 5% DMSO was titrated with the test compound (1) (100 μM in the same buffer containing 5% DMSO) in 21 injections (1 × 1μl and 20 × 5μl) with an injection interval of 120 s. The test compound was titrated into buffer, and the buffer was titrated to the PPARγ LBD proteins under otherwise identical conditions. The ITC results were analyzed using NanoAnalyze software (TA Instruments, New Castle, DE) with an independent binding model.

Sequence of CYP1A2 (P05177 whole entry): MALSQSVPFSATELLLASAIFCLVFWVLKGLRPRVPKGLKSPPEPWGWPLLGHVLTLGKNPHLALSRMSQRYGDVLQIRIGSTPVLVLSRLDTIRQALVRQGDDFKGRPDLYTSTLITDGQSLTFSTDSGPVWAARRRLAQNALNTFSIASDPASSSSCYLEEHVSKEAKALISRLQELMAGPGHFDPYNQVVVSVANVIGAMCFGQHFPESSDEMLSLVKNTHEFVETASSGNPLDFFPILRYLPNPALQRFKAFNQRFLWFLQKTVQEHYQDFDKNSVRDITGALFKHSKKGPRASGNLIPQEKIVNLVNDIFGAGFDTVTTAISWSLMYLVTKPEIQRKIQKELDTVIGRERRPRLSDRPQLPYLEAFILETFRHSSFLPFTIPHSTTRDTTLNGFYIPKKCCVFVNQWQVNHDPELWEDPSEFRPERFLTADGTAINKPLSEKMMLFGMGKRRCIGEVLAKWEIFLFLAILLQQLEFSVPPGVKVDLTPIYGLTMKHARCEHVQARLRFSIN
T2 sequence (P37231 238-503 limits assumed): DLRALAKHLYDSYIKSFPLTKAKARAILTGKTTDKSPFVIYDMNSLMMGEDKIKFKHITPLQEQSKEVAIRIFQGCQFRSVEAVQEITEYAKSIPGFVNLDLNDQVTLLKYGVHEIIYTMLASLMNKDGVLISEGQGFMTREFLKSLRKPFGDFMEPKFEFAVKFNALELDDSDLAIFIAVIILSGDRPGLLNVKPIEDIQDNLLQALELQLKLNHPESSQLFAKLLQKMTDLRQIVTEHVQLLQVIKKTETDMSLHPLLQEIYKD
Sequence of CYP2B6 (P20813 whole entry): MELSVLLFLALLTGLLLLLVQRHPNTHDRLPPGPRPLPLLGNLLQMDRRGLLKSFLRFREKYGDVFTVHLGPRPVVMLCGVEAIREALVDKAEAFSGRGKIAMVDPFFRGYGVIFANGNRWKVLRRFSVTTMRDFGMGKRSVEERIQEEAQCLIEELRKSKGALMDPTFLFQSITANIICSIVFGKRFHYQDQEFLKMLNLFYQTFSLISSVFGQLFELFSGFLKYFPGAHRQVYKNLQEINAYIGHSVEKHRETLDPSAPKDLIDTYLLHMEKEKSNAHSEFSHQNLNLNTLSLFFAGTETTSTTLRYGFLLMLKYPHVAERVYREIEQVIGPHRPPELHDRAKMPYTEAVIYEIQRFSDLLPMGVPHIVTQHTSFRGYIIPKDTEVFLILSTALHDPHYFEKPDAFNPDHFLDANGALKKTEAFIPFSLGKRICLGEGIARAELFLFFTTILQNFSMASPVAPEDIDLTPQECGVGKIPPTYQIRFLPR

`COc1ccc(Oc2ccc3ncn(CCOc4ccc(CCC(=O)O)cc4)c3c2)cc1` [Compound 2]: the IC50 on CYP1A2 and against CYP2B6 was more than 20 µM throughout. The compound further returned a Papp in data set [1] of 3.9 ×10⁻⁶ cm/s. The “activity on PPARα” value on human PPARα is “no discernible impact”.
Consider `Cc1nnc(-c2ccc(OCCCOc3ccc(CCC(=O)O)c(F)c3)c(F)c2)s1` [Compound 1], for which the “molar ratio (ligand per protein)” value on PPARγ LBD protein is “one ligand per protein molecule”. In addition, the Kd at PPARγ LBD protein (25 °C, ligand binding domain of PPARγ, read-out: dissociation constant KD) was determined as 0.8 ± 0.1 µM. The IC50 on CYP1A2 and against CYP2B6 was more than 20 µM each time.
